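96-well plates; 48 h exposure; 5 concentrations. Endpoints by linear interpolation between flanking doses. Not reached: highest tested concentration assigned. TGI marks complete inhibition of growth.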
Assays:
Assay in all cases: inhibition of tumour cell growth, NCI panel, 48 h
[1] = system: 786-0 renal
[2] = system: A498 renal
[3] = system: A549 NSCLC
[4] = system: ACHN renal
[5] = system: BT-549 breast
[6] = system: CAKI-1 renal
[7] = system: CCRF-CEM leukemia
[8] = system: COLO 205 colon
[9] = system: DU-145 prostate
[10] = system: EKVX NSCLC
[11] = system: HCC-2998 colon
[12] = system: HCT-116 colon
[13] = system: HCT-15 colon
[14] = system: HL-60(TB) leukemia
[15] = system: HOP-62 NSCLC
[16] = system: HOP-92 NSCLC
[17] = system: HS 578T breast
[18] = system: HT29 colon
[19] = system: IGROV1 ovarian
[20] = system: K-562 leukemia
[21] = system: KM12 colon
[22] = system: LOX IMVI melanoma
[23] = system: M14 melanoma
[24] = system: MALME-3M melanoma
[25] = system: MCF7 breast
[26] = system: MDA-MB-231 breast
[27] = system: MDA-MB-435
[28] = system: MDA-N
[29] = system: MOLT-4 leukemia
[30] = system: NCI-H226 lung
[31] = system: NCI-H23 lung
[32] = system: NCI-H460 lung
[33] = system: NCI-H522 lung
[34] = system: NCI/ADR-RES ovarian
[35] = system: OVCAR-3 ovarian
[36] = system: OVCAR-4 ovarian
[37] = system: OVCAR-5 ovarian
[38] = system: OVCAR-8 ovarian
[39] = system: PC-3 prostate
[40] = system: RPMI-8226 leukemia
[41] = system: RXF 393 renal
[42] = system: SF-268 CNS
[43] = system: SF-295 CNS
[44] = system: SF-539 CNS
[45] = system: SK-MEL-2 melanoma
[46] = system: SK-MEL-28 melanoma
[47] = system: SK-MEL-5 melanoma
[48] = system: SK-OV-3 ovarian
[49] = system: SN12C renal
[50] = system: SNB-19 CNS
[51] = system: SNB-75 CNS
[52] = system: SR leukemia
[53] = system: SW-620 colon
[54] = system: T-47D breast
[55] = system: TK-10 renal
[56] = system: U251 CNS
[57] = system: UACC-257 melanoma
[58] = system: UACC-62 melanoma
[59] = system: UO-31 renal

In the case of `COC(=O)C(Cc1ccc2c(c1)CCCC2)Cc1cc2c(cc1C(O)OC)CCC2` (configuration not stated), the TGI [1] is reported as over 100 µM, the TGI [2] is reported as over 100 µM and the TGI [3] is reported as over 100 µM. The TGI [4] was over 100 µM, the TGI [5] was over 100 µM and the TGI [6] was over 100 µM. It also gave a TGI [7] of over 100 µM, a TGI [8] of over 100 µM and a TGI [9] of over 100 µM. The TGI [10] was over 100 µM, the TGI [11] was over 100 µM and the TGI [12] was over 100 µM. It also gave a TGI [13] of over 100 µM, a TGI [14] of 56.9 µM and a TGI [15] of over 100 µM. For the same molecule, the TGI [16] was over 100 µM, the TGI [17] was over 100 µM and the TGI [18] was over 100 µM. It also gave a TGI [19] of over 100 µM, a TGI [20] of over 100 µM and a TGI [21] of over 100 µM. For the same molecule, the TGI [22] was over 100 µM, the TGI [23] was over 100 µM and the TGI [24] was over 100 µM. It also gave a TGI [25] of 65.1 µM, a TGI [26] of over 100 µM and a TGI [27] of over 100 µM. It also gave a TGI [28] of over 100 µM, a TGI [29] of over 100 µM and a TGI [30] of over 100 µM. The TGI [31] was over 100 µM, the TGI [32] was over 100 µM and the TGI [33] was over 100 µM. It also gave a TGI [34] of over 100 µM, a TGI [35] of over 100 µM and a TGI [36] of over 100 µM. The TGI [37] was over 100 µM, the TGI [38] was over 100 µM and the TGI [39] was over 100 µM. For the same molecule, the TGI [40] was over 100 µM, the TGI [41] was 67.3 µM and the TGI [42] was over 100 µM. The TGI [43] was over 100 µM, the TGI [44] was over 100 µM and the TGI [45] was over 100 µM. The TGI [46] was over 100 µM, the TGI [47] was over 100 µM and the TGI [48] was over 100 µM. The TGI [49] was over 100 µM, the TGI [50] was over 100 µM and the TGI [51] was over 100 µM. For the same molecule, the TGI [52] was over 100 µM, the TGI [53] was over 100 µM and the TGI [54] was over 100 µM. The TGI [55] was over 100 µM, the TGI [56] was over 100 µM and the TGI [57] was 90.4 µM. For the same molecule, the TGI [58] was over 100 µM and the TGI [59] was over 100 µM.
`O=S(/C=C/C=C/S(=O)(=O)c1ccccc1)c1ccccc1` (configuration not stated) showed a TGI [1] of 1.61 µM, a TGI [2] of over 10 µM and a TGI [3] of over 10 µM. It also gave a TGI [4] of over 9.31 µM, a TGI [5] of over 10 µM and a TGI [6] of 3.43 µM. It also gave a TGI [7] of 2.27 µM, a TGI [8] of 3.48 µM and a TGI [9] of over 7 µM. It also gave a TGI [10] of over 10 µM, a TGI [11] of over 10 µM and a TGI [12] of 2.84 µM. It also gave a TGI [13] of 3.97 µM, a TGI [14] of 0.909 µM and a TGI [15] of over 10 µM. For the same molecule, the TGI [16] was 4.87 µM, the TGI [17] was over 10 µM and the TGI [18] was over 10 µM. It also gave a TGI [19] of over 10 µM, a TGI [20] of 2.83 µM and a TGI [21] of over 4.88 µM. It also gave a TGI [22] of over 3.89 µM, a TGI [23] of 1.56 µM and a TGI [24] of 4.22 µM. The TGI [25] was 3.17 µM, the TGI [26] was 8.8 µM and the TGI [27] was 5.96 µM. For the same molecule, the TGI [28] was over 5.51 µM, the TGI [29] was 4.11 µM and the TGI [30] was over 10 µM. The TGI [31] was 4.39 µM, the TGI [32] was over 10 µM and the TGI [33] was 3.17 µM. For the same molecule, the TGI [34] was 5.02 µM, the TGI [35] was 3.44 µM and the TGI [36] was 4.33 µM. It also gave a TGI [37] of over 10 µM, a TGI [38] of 3.7 µM and a TGI [39] of over 10 µM. The TGI [40] was 3.06 µM, the TGI [41] was 3.31 µM and the TGI [42] was over 9.08 µM. It also gave a TGI [43] of over 10 µM, a TGI [44] of over 10 µM and a TGI [45] of 4.2 µM. For the same molecule, the TGI [46] was 4.35 µM, the TGI [47] was 3.91 µM and the TGI [48] was over 10 µM. For the same molecule, the TGI [49] was 3.94 µM, the TGI [50] was over 10 µM and the TGI [51] was over 10 µM. It also gave a TGI [52] of 3.07 µM, a TGI [53] of 2.67 µM and a TGI [54] of over 4.97 µM. The TGI [55] was 6.08 µM, the TGI [56] was over 10 µM and the TGI [57] was 3.77 µM. For the same molecule, the TGI [58] was over 7.77 µM and the TGI [59] was 5.64 µM.
`CCOC(=O)/C(SC#N)=C(/N)N1CCCC1` was tested, and the TGI [1] was over 100 µM, the TGI [2] was over 100 µM and the TGI [3] was over 100 µM. For the same molecule, the TGI [4] was over 100 µM, the TGI [5] was over 100 µM and the TGI [6] was over 100 µM. It also gave a TGI [7] of over 100 µM, a TGI [8] of over 100 µM and a TGI [9] of over 100 µM. It also gave a TGI [10] of over 100 µM, a TGI [11] of over 100 µM and a TGI [12] of over 100 µM. The TGI [13] was over 100 µM, the TGI [14] was over 100 µM and the TGI [15] was over 100 µM. The TGI [16] was over 100 µM, the TGI [17] was over 100 µM and the TGI [18] was over 100 µM. It also gave a TGI [19] of over 100 µM, a TGI [20] of over 100 µM and a TGI [21] of over 100 µM. The TGI [22] was over 100 µM, the TGI [23] was over 100 µM and the TGI [24] was over 100 µM. The TGI [25] was over 100 µM, the TGI [26] was over 100 µM and the TGI [27] was over 100 µM. The TGI [28] was over 100 µM, the TGI [29] was over 100 µM and the TGI [30] was over 100 µM. The TGI [31] was over 100 µM, the TGI [32] was over 100 µM and the TGI [33] was over 100 µM. It also gave a TGI [34] of over 100 µM, a TGI [35] of over 100 µM and a TGI [36] of over 100 µM. For the same molecule, the TGI [37] was over 100 µM, the TGI [38] was over 100 µM and the TGI [39] was over 100 µM. It also gave a TGI [40] of over 100 µM, a TGI [41] of over 100 µM and a TGI [42] of over 100 µM. The TGI [43] was over 100 µM, the TGI [44] was over 100 µM and the TGI [45] was over 100 µM. The TGI [46] was over 100 µM, the TGI [47] was over 100 µM and the TGI [48] was over 100 µM. For the same molecule, the TGI [49] was over 100 µM, the TGI [50] was over 100 µM and the TGI [51] was over 100 µM. The TGI [52] was over 100 µM, the TGI [53] was over 100 µM and the TGI [54] was over 100 µM. The TGI [55] was over 100 µM, the TGI [56] was over 100 µM and the TGI [57] was over 100 µM. For the same molecule, the TGI [58] was over 100 µM and the TGI [59] was over 100 µM.

Reference: PubChem BioAssay (NCI)
